From article PMC11945475, “Nasal Administration of a Nanoemulsion Based on Methyl Ferulate and Eugenol Encapsulated in Chitosan Oleate: Uptake Studies in the Central Nervous System” (Pharmaceutics, 2025)
Like-named read-outs stand apart in the source and are kept apart here.

Legend:
[1] = in vivo; details: rat; for AUC / Cmax / Tmax: nasal CS-OA NE, Fer-Me 0.4 mg/kg and eugenol 0.8 mg/kg
Experimental: (§1) Fer-Me and eugenol were nasally co-administered as loaded in CS-OA NE to evaluate their concentration–time profiles in male Sprague-Dawley rats’ (200–250 g body weight; Charles River laboratories, Calco, Italy) bloodstream and CSF. The results were compared with those obtained by the rat intravenous administrations of Fer-Me (10 mg/kg; present study), and 20 mg/kg of eugenol. The sample size (4 rats/group) has been chosen based on our previous studies. The experimental procedures were approved by the Italian Ministry of Health and were performed in accordance with the European Communities Council Directive of September 2010 (2010/63/EU). According to the ARRIVE guidelines, all possible efforts were made to minimize animal pain and discomfort and to reduce the number of experimental subjects.
Fer-Me and eugenol were nasally co-administered to rats at the doses of 0.4 mg/kg (about 0.1 mg/rat) and 0.8 mg/kg (about 0.2 mg/rat), respectively, as encapsulated in CS-OA NE (Fer-Me content about 1 mg/mL; eugenol content about 2 mg/mL). A group of four rats anesthetized and laid on their backs (weighing approximately 250 g) received CS-OA NE after being fasted for 12 h. In particular, each rat received 50 μL of CS-OA NE formulation in each nostril. The nasal administration was carried out using a semiautomatic pipette connected to a short polyethylene tubing, which was inserted about 0.6 to 0.7 cm into each nostril. Following the administration, blood samples (100 μL) were collected at predetermined time points, along with CSF samples (30 μL). The blood samples (n = 4 for timepoint) were immediately mixed with 200 μL of ice-cold CH3CN and then 100 μL of internal standard (100 μM BNZ in CH3CN) was added. These samples were centrifuged at 12,500× g for 5 min. About 300 μL of the supernatant was then withdrawn and centrifuged again. Finally, 10 μL of the resultant sample was analyzed using HPLC for the quantification of Fer-Me and eugenol.
The HPLC apparatus was the same used for the uptake experiments with RPMI 2650 cells (Section 2.3.3). […] Calibration curves of peak areas versus concentration in the range 0.5 to 10 μM for Fer-Me (0.10 to 2.08 μg/mL), and eugenol (0.08 to 1.64 μg/mL), obtained dissolving the compounds in simulated CSF, were linear (n = 8, r ≥ 0.996, p < 0.0001). […] Therefore, the concentrations of these compounds determined in whole blood were referred to as the peak area ratio with respect to the internal standard BNZ. Eight different concentrations in rat whole blood at 4 °C, ranging from 0.5 to 50 μM for Fer-Me (0.10 to 10.41 μg/mL) and eugenol (0.08 to 8.21 μg/mL) were used to generate calibration curves in this biological system, which were linear (n = 8, r ≥ 0.990, p < 0.001).
Fer-Me in vivo half-life (t1/2) in the rats’ bloodstream was determined using nonlinear regression (exponential decay) of concentration values quantified at appropriate time intervals after infusion, further validated by applying linear regression to the semi-logarithmic plot. The area under the concentration–time curves (AUC, μg∙mL^−1∙min) in rat bloodstreams or CSF, following Fer-Me intravenous administration or CA-OA NE nasal administration, were calculated using the trapezoidal method.
Following the nasal administration of CS-OA NE, the absolute bioavailability (F) values of Fer-Me and eugenol were calculated as the ratio of the nasal AUC to the intravenous AUC values measured in the bloodstream, normalized to the respective doses, according to Equation (3):(3) F=AUCnasal/AUCIV·doseIV/dosenasal GraphPad Prism version 7.0 (GraphPad Software, San Diego, CA, USA) was used for all calculations.

[2] = In vitro drug release from CS-OA NE (dialysis tubing); type: physicochemical; details: PBS pH 6.2, 32 °C
Experimental: The membrane was immersed in 50 mL of PBS (pH 6.2) at 32 ± 2 °C. The release medium was kept under constant magnetic stirring. Aliquots (1 mL) were withdrawn at predetermined intervals ranging from 15 min to 4 h and replaced with an equal volume of fresh PBS. The Fer-Me and eugenol released were quantified using the HPLC method.

[3] = Intravenous administration of Fer-Me to rats (bloodstream and CSF pharmacokinetics); type: in vivo, rat; details: rat, in vivo, iv
Experimental: Charles River laboratories, Calco, Italy) bloodstream and CSF. […] The sample size (4 rats/group) has been chosen based on our previous studies. The experimental procedures were approved by the Italian Ministry of Health and were performed in accordance with the European Communities Council Directive of September 2010 (2010/63/EU). According to the ARRIVE guidelines, all possible efforts were made to minimize animal pain and discomfort and to reduce the number of experimental subjects. Fer-Me solution (2.5 mg/mL final concentration, 15% v/v EtOH content) was prepared by first dissolving Fer-Me in EtOH and then adding this latter solution to a saline solution (0.9% NaCl). […] The aqueous phase was then subjected to a double extraction with 1 mL of H2O-saturated ethyl acetate. […] Data were acquired and processed through CLASS-VP Software; version 7.2.1 (Shimadzu Italia, Milan, Italy). The mobile phase was eluted under isocratic conditions (0.8 mL/min) and was constituted by a mixture of acetic acid in H2O (0.4% v/v) and MeOH, whose ratio was 40:60 (v/v). The UV-Vis detector was set at 320 nm for the detection of Fer-Me, its hydrolysis product Fer, and Caf-Me, which was utilized as an internal standard during blood sample extraction. […] The average recoveries were approximately 40% for Fer and 58% for Fer-Me. For this reason, the concentrations of these compounds were determined by their peak area ratio with respect to the internal standard (Caf-Me). […] Fer-Me in vivo half-life (t1/2) in the rats' bloodstream was determined using nonlinear regression (exponential decay) of concentration values quantified at appropriate time intervals after infusion, further validated by applying linear regression to the semi-logarithmic plot.

[4] = cited from earlier work
[5] = male, Sprague-Dawley, rat, in vivo
Experimental: as §1

[6] = test system: several cell lines; details: cited from earlier work
[7] = cited from earlier work; remark: listed apart in the source

Question: Which “CSF bioavailability (AUC) after nasal CS-OA NE relative to intravenous administration” value [1] does the source give for COC(=O)/C=C/c1ccc(O)c(OC)c1 [Fer-Me, methyl ferulate] here?
Answer: about 30 times

Question: What about the “absolute bioavailability F (bloodstream)” value [1] of the same molecule?
Answer: 56%

Question: And the “time at which CSF concentration decreased to zero (permanence in the CSF)” value [1]?
Answer: 120 min

Question: What about the “time within which plasma concentration decreased to zero” value [1] of the same molecule?
Answer: ≤ 90 min

Question: And the “Tmax in CSF” value ([1]; inhaled or intranasal)?
Answer: 20 min

Question: What about the “Tmax in the bloodstream” value ([1]; inhaled or intranasal) of the same molecule?
Answer: 40 min

Question: What about the “in vitro release from CS-OA NE” value ([2]; 30 min) of the same molecule?
Answer: 24.9%

Question: And the “in vitro release from CS-OA NE” value ([2]; 240 min)?
Answer: 96.9%

Question: What about the “Tmax in CSF” value [3] of the same molecule?
Answer: 20 min

Question: What about the “kinetic elimination constant (kel)” value ([3]; 10 mg/kg) of the same molecule?
Answer: 0.069 ± 0.003 min⁻¹

Question: Which absolute bioavailability ([4]; eugenol oral administration) does the source give for C=CCc1ccc(O)c(OC)c1 [eugenol] here?
Answer: about 4%

Question: And the “AUC in CSF” value ([4]; rat, oral dose of 500 mg/kg of eugenol)?
Answer: 30.97 ± 2.18 µg·min/mL

Question: What about the “dose-normalized CSF AUC of eugenol relative to Fer-Me” value [5] of the same molecule?
Answer: about 16 times

Question: What about the “concentration known to induce cytotoxicity” value [6] of the same molecule?
Answer: 5 mM

Question: What about the “permanence in the rat CSF” value ([7]; in vivo) of the same molecule?
Answer: 50 min

Question: And the “AUC in CSF” value ([7]; rat, eugenol 20 mg/kg i.v.)?
Answer: 56.1 ± 4.2 µg·min/mL

Question: What about the “Tmax in CSF” value ([7]; rat, eugenol 20 mg/kg i.v.) of the same molecule?
Answer: 10 min

Question: What about the “t1/2 in the bloodstream” value ([7]; rat, in vivo, iv, 20 mg/kg) of the same molecule?
Answer: about 20 min

Question: What about the bioavailability ([1]; male, Sprague-Dawley, 0.8 mg/kg, nasal CS-OA NE vs intravenous, dose-normalized, read-out: absolute bioavailability F (bloodstream)) of the same molecule?
Answer: 95%

Question: What about the “time at which CSF concentration decreased to zero (permanence in the CSF)” value ([1]; male, Sprague-Dawley) of the same molecule?
Answer: 120 min

Question: And the “time within which plasma concentration decreased to zero” value ([1]; male, Sprague-Dawley)?
Answer: ≤ 90 min

Question: What about the AUC ([1]; male, Sprague-Dawley, inhaled or intranasal, 0.8 mg/kg, read-out: AUC in CSF (converted)) of the same molecule?
Answer: 1060 ng·h/mL

Question: What about the AUC ([1]; male, Sprague-Dawley, inhaled or intranasal, 0.8 mg/kg, read-out: AUC in the bloodstream (converted)) of the same molecule?
Answer: 111 ng·h/mL

Question: What about the Cmax ([1]; male, Sprague-Dawley, inhaled or intranasal, 0.8 mg/kg, read-out: Cmax in CSF) of the same molecule?
Answer: 1050 ± 80 ng/mL

Question: What about the Cmax ([1]; male, Sprague-Dawley, inhaled or intranasal, 0.8 mg/kg, read-out: Cmax in the bloodstream) of the same molecule?
Answer: 150 ± 10 ng/mL

Question: And the Tmax ([1]; male, Sprague-Dawley, inhaled or intranasal, 0.8 mg/kg, read-out: Tmax in CSF (converted))?
Answer: 20 min

Question: And the Tmax ([1]; male, Sprague-Dawley, inhaled or intranasal, 0.8 mg/kg, read-out: Tmax in the bloodstream (converted))?
Answer: 40 min

Question: What about the “in vitro release from CS-OA NE” value ([2]; 30 min) of the same molecule?
Answer: 25.2%

Question: And the “in vitro release from CS-OA NE” value ([2]; 240 min)?
Answer: 97.5%
